The structures appear in SMILES notation.

rat P2X7, sequence (Q64663 whole entry): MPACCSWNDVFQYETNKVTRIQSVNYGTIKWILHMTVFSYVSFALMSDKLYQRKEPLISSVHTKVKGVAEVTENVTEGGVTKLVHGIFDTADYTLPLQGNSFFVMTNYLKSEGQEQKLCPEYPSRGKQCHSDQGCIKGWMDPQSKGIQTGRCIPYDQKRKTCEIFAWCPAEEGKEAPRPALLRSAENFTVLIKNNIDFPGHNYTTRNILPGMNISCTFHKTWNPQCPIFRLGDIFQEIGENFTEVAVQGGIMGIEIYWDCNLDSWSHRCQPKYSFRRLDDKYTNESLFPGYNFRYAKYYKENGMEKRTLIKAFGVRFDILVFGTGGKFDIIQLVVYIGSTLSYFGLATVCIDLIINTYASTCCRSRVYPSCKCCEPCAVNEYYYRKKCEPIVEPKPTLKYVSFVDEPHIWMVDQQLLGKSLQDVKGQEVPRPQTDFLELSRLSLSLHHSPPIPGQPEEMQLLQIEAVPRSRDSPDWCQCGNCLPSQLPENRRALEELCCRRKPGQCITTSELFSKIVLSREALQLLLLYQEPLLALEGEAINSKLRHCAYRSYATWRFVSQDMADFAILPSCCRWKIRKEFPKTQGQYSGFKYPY

In this test the target is rat P2X7 (Rattus norvegicus (Rat), UniProt Q64663). In words: Rat P2X7 functional assay (Ca2+ influx, Fluo-4, FDSS). The class given is cell-based. Particulars: HEK293 cells stably expressing rat P2X7; BzATP final 10 microM; 7-point dose-response; read-out: Antagonistic activities with respect to the rat P2X7 receptor (IC50). Here is the method:
Rat P2X7 Functional Assay
The functional activity of compounds was determined by measuring changes in intracellular calcium concentration using a Ca^2+-sensitive fluorescent dye, Fluo-4 (Molecular Probes). The changes in fluorescent signal were monitored by the cell imaging technology by Hamamatsu Photonics's Functional Drug Screening System (FDSS). Increases in intracellular Ca^2+ concentration were readily detected upon activation with BzATP.
HEK293 cells stably expressing rat P2X7 (GenBank accession number NM_019256) were grown in Corning CellBIND cell culture flasks, in a 5% CO2 humidified incubator to about 80% confluence. Media composition consisted of Dulbecco's Modified Eagle Medium (high glucose), 10% fetal bovine serum ([…]), 100 units/[…] Penicillin, 100 microg/mL Streptomycin and 250 microg/mL Geneticine.
1. […] Plate-out HEK293-rat P2X7 cells (40 microL medium containing 5,000 cells per well) into poly-D-lysine coated 384-well plates (BD Falcon) at 24 h prior to assay.
2. Incubate at 37° C. in 5% CO2.
3. Incubate the plate at 37° C. in 5% CO2 for 1 h.
5. Test compounds were prepared at 100× the test concentration in DMSO by serial dilution with Biomek-FX liquid handling instrument. 33× diluted compound solutions in assay buffer were prepared in intermediate compound plate with Biomek-NX liquid handling instrument. A further 3× dilution occurred in below steps 6 and 7.
6. Add 20 microL of 33× diluted compound solutions into each well and leave the plate for 10 min under the dark at room temperature.
7. Measure activity by FDSS as follows: • Set the assay plate on the stacker of FDSS. • Start the detection of fluorescence intensity at 540 nm by 480 nm exicitation. • After 30 seconds, add 20 microL of assay buffer containing 30 microM BzATP (final 10 microM).
IC50 values for compounds of the present invention were determined from 7-point dose-response studies. Curves were generated using the average of duplicate wells for each data point. Finally, the IC50 values are calculated with the best-fit dose curve determined by XLfit (ID Business Solutions Ltd.).
A word on the IC50: it is the concentration that gives 50% inhibition. With `O=C(NCc1ccc(F)cc1C(F)(F)F)[C@]1(F)CC[C@H](O)c2ncccc21` [Example 144, (5S,8S)-5-fluoro-N-(4-fluoro-2-(trifluoromethyl)benzyl)-8-hydroxy-5,6,7,8-tetrahydroquinoline-5-carboxamide], the IC50 was less than 1000 nM.
On to `O=C(NCc1c(Cl)cc(Cl)cc1CO)C1CCC(O)c2ncccc21` (centres unmarked) [Example 9, N-(2,4-dichloro-6-(hydroxy-methyl)benzyl)-8-hydroxy-5,6,7,8-tetrahydroquinoline-carboxamide], for which the half-inhibitory concentration (IC50) was less than 1000 nM.
Turning to `CO[C@H]1CC[C@@](F)(C(=O)NCc2c(F)cc(Cl)cc2Cl)c2cccnc21` [Example 335, (5S,8S)-N-(2,4-dichloro-6-fluorobenzyl)-5-fluoro-8-methoxy-5,6,7,8-tetrahydroquinoline-5-carboxamide], the IC50 is less than 1000 nM.
The figure for `C[C@]1(O)CC[C@@](F)(C(=O)NCc2ccc(Cl)c(F)c2F)c2cccnc21` [Example 267, (5S,8S)-N-(4-chloro-2,3-difluorobenzyl)-5-fluoro-8-hydroxy-8-methyl-5,6,7,8-tetrahydroquinoline-5-carboxamide] is less than 1000 nM; for `Cc1cc(Cl)cc(Cl)c1CNC(=O)[C@]1(F)CC[C@H](O)c2ncccc21` [Example 127, (5S,8S)-N-(2,4-dichloro-6-methylbenzyl)-fluoro-8-hydroxy-5,6,7,8-tetrahydroquinoline-5-carboxamide] it is less than 1000 nM.
`C[C@]1(O)CC[C@@](F)(C(=O)NCc2c(F)cc(Cl)cc2Cl)c2cccnc21` [Example 265, (5S,8S)-N-(2,4-dichloro-6-fluorobenzyl)-5-fluoro-8-hydroxy-8-methyl-5,6,7,8-tetrahydroquinoline-5-carboxamide]: the IC50 is less than 1000 nM.
Under `O=C(NCc1c(F)cc(Cl)cc1Cl)[C@]1(F)CC[C@H](O)c2ncccc21` [Example 152, (5S,8S)-N-(2,4-dichloro-6-fluorobenzyl)-5-fluoro-8-hydroxy-5,6,7,8-tetrahydroquinoline-5-carboxamide] stands less than 1000 nM; under `C[C@]1(O)CC[C@@](F)(C(=O)NC2CC2c2ccc(Cl)cc2Cl)c2cccnc21` (stereo partly drawn) [Example 273, (5S,8S)-N-((trans)-2-(2,4-dichlorophenyl)cyclopropyl)-5-fluoro-8-hydroxy-8-methyl-5,6,7,8-tetrahydroquinoline-5-carboxamide], less than 1000 nM.
Consider `C[C@]1(O)CC[C@@](F)(C(=O)NCc2c(F)cc(F)cc2Cl)c2cccnc21` [Example 266, (5S,8S)-N-(2-chloro-4,6-difluorobenzyl)-5-fluoro-8-hydroxy-8-methyl-5,6,7,8-tetrahydroquinoline-5-carboxamide], for which the IC50 was less than 1000 nM.
The figure for `CS(=O)(=O)C1CC[C@@](F)(C(=O)NCc2ccc(Cl)cc2Cl)c2cccnc21` (some centres unmarked) [Example 350] is less than 1000 nM.
Consider `Cc1cccc(Cl)c1CNC(=O)[C@]1(F)CC[C@H](O)c2ncccc21` [Example 161, (5S,8S)-N-(2-chloro-6-methylbenzyl)-5-fluoro-8-hydroxy-5,6,7,8-tetrahydroquinoline-5-carboxamide], for which the IC50 was less than 1000 nM.
The figure for `Cc1cc(Cl)cc(Cl)c1CNC(=O)[C@@]1(F)CC[C@@H](O)c2ncccc21` [Example 126, (5R,8R)-N-(2,4-dichloro-6-methylbenzyl)-5-fluoro-8-hydroxy-5,6,7,8-tetrahydroquinoline-5-carboxamide] is less than 1000 nM; for `NC(=O)CC1CCC(C(=O)NCc2cccc(C(F)(F)F)c2Cl)c2cccnc21` (centres unmarked) [Example 32, (2-amino-2-oxoethyl)-N-(2-chloro-3-(trifluoro-methyl)benzyl)-5,6,7,8-tetra-hydroquinoline-5-carboxamide] it is less than 1000 nM.
On to `O=C(NCc1ccc(C(F)(F)F)cc1Cl)[C@]1(F)CC[C@H](O)c2ncccc21` [Example 187, (5S,8S)-N-(2-chloro-4-(trifluoromethyl)benzyl)-5-fluoro-8-hydroxy-5,6,7,8-tetrahydroquinoline-5-carboxamide], for which the half-maximal inhibitory concentration (IC50) was less than 1000 nM.

(Values after patent US11077100B2, “Tetrahydroquinoline derivatives as P2X7 receptor antagonists” (RaQualia Pharma Inc., priority 2017, dated 2021).)
